Data reported in US8008329B2 (Dong Wha Pharmaceutical Co., Ltd., priority 2008, dated 2011).
“And” between values parts separate entries of the source, which are not always exact repeats. Equal entries are not always repeated. Marks after values point to notes of the source that are not given here.

Tests used:
[1] = system: osteoclast differentiation; test: Osteoclast differentiation in co-culture of mouse bone marrow cells and calvarial osteoblasts, TRAP staining (Examples 1-7); format: cell-based; conditions: day 7
[2] = system: osteoclast differentiation; test: Osteoclast differentiation in co-culture of mouse bone marrow cells and ST2 cells, TRAP staining (Examples 8-9); format: cell-based; conditions: for % number of osteoclast (vs. solvent control group): day 7; for activity at 0.1 µM: Mus musculus, Osteoclast, 168 h, day 7, read-out: % number of osteoclast (vs. solvent control group)
In short: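 Readout was TRAP-positive multinucleated (≥6 nuclei) cells on day 7, reported as % of 0.1% DMSO control, mean±SD of 4 wells. Cells were mouse (male ddY) bone marrow plus ST2 co-cultures driven by 10^−8 M vitamin D3/dexamethasone. Benzamidines, alendronic acid or risedronic acid were added at 0.1 μM alone or combined, with media renewed days 3 and 5.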

[3] = Mus musculus, Osteoclast, 168 h, individual treatment of Compound (0.1 μM), read-out: % number of osteoclast (vs. solvent control group)
[4] = combination treatment of alendronic acid (0.2 μM) with compound (0.1 μM)
[5] = combination treatment of clodronic acid (1 μM) with compound (0.1 μM)
[6] = combination treatment of etidronic acid (2 μM) with compound (0.1 μM)
[7] = combination treatment of ibandronic acid (0.1 μM) with compound (0.1 μM)
[8] = combination treatment of pamidronic acid (0.1 μM) with compound (0.1 μM)
[9] = combination treatment of risedronic acid (0.1 μM) with compound (0.1 μM)
[10] = combination treatment of zoledronic acid (0.01 μM) with compound (0.1 μM)
[11] = individual treatment of Compound (0.1 μM)
[12] = Combination treatment (alendronic acid + compounds), 0.1 μM each
[13] = Combination treatment (risedronic acid + compounds), 0.1 μM each
[14] = Individual treatment (compounds), 0.1 μM
[15] = singly treated with 0.1 μM risedronic acid

NCCC(O)(P(=O)(O)O)P(=O)(O)O [pamidronic acid, reference compound]
activity at 0.1 µM ([1]; Mus musculus, Osteoclast, 168 h, individual treatment of pamidronic acid (0.1 μM), read-out: % number of osteoclast (vs. solvent control group)): 82% | % number of osteoclast (vs. solvent control group) ([1]; individual treatment of pamidronic acid (0.1 μM)): 82 ± 6.7 %

Cc1nc(-c2ccc(OCCCCCOc3ccc(C(=N)NO)c(F)c3)cc2)c(C(C)C)s1 [Compound 187, N-hydroxy-2-fluoro-4-{5-[4-(5-isopropyl-2-methyl-1,3-thiazol-4-yl)-phenoxy]-pentyloxy}-benzamidine]
activity at 0.1 µM [1, 3]: 67% | % number of osteoclast (vs. solvent control group) [1, 4]: 32% and 32 ± 8.1*^#@ % | % number of osteoclast (vs. solvent control group) [1, 5]: 60 ± 15.2*^#@ % | % number of osteoclast (vs. solvent control group) [1, 6]: 41% and 41 ± 7.5*^#@ % | % number of osteoclast (vs. solvent control group) [1, 7]: 42% and 42 ± 8.1*^#@ % | % number of osteoclast (vs. solvent control group) [1, 8]: 47% and 47 ± 10.5*^#@ % | % number of osteoclast (vs. solvent control group) [1, 9]: 40% and 40 ± 6.6*^#@ % | % number of osteoclast (vs. solvent control group) [1, 10]: 43% and 43 ± 4.5*^#@ % | % number of osteoclast (vs. solvent control group) [1, 11]: 67% and 67 ± 7.4 %

O=P(O)(O)C(O)(Cn1ccnc1)P(=O)(O)O [zoledronic acid, reference compound]
activity at 0.01 µM ([1]; Mus musculus, Osteoclast, 168 h, individual treatment of zoledronic acid (0.01 μM), read-out: % number of osteoclast (vs. solvent control group)): 84% | % number of osteoclast (vs. solvent control group) ([1]; individual treatment of zoledronic acid (0.01 μM)): 84 ± 4.1 %

CN(CCN1CCOCC1)c1nc(-c2ccc(OCCCCCOc3ccc(C(=N)NO)cc3)cc2)cs1 [Compound 119, N-hydroxy-4-[5-(4-{2-[methyl-(2-morpholinoethyl)amino]-1,3-thiazol-4-yl}phenoxy)pentyloxy]-benzamidine]
% number of osteoclast (vs. solvent control group) [2, 12]: 29 ± 4.9^ab % | % number of osteoclast (vs. solvent control group) [2, 13]: 29 ± 8.7^ac % | activity at 0.1 µM [2, 14]: 78 ± 9% | activity at 0.1 µM [1, 3]: 66% | % number of osteoclast (vs. solvent control group) [1, 4]: 29% and 29 ± 5.3*^#@ % | % number of osteoclast (vs. solvent control group) [1, 5]: 47% and 47 ± 13.0*^#@ % | % number of osteoclast (vs. solvent control group) [1, 6]: 38% and 38 ± 8.2*^#@ % | % number of osteoclast (vs. solvent control group) [1, 7]: 36 ± 9.8*^#@ % | % number of osteoclast (vs. solvent control group) [1, 8]: 37% and 37 ± 5.0*^#@ % | % number of osteoclast (vs. solvent control group) [1, 9]: 38% and 38 ± 6.8*^#@ % | % number of osteoclast (vs. solvent control group) [1, 10]: 42 ± 8.1*^#@ % | % number of osteoclast (vs. solvent control group) [1, 11]: 66 ± 8.3 %

CC(O)(P(=O)(O)O)P(=O)(O)O [etidronic acid, reference compound]
activity at 2 µM ([1]; Mus musculus, Osteoclast, 168 h, individual treatment of etidronic acid (2 μM), read-out: % number of osteoclast (vs. solvent control group)): 86% | % number of osteoclast (vs. solvent control group) ([1]; individual treatment of etidronic acid (2 μM)): 86 ± 6.9 %

CC(C)c1sc(N2CCOCC2)nc1-c1ccc(OCCCCCOc2ccc(C(=N)NO)cc2)cc1 [Compound 169, N-hydroxy-4-{5-[4-(5-isopropyl-2-morpholino-1,3-thiazol-4-yl)phenoxy]pentyloxy}-benzamidine]
activity at 0.1 µM [1, 3]: 78% | % number of osteoclast (vs. solvent control group) [1, 4]: 44% and 44 ± 7.4*^#@ % | % number of osteoclast (vs. solvent control group) [1, 5]: 59% and 59 ± 14.0*^#@ % | % number of osteoclast (vs. solvent control group) [1, 6]: 49% and 49 ± 9.7*^#@ % | % number of osteoclast (vs. solvent control group) [1, 7]: 54 ± 8.7*^#@ % | % number of osteoclast (vs. solvent control group) [1, 8]: 50% and 50 ± 8.7*^#@ % | % number of osteoclast (vs. solvent control group) [1, 9]: 42% and 42 ± 7.6*^#@ % | % number of osteoclast (vs. solvent control group) [1, 10]: 59 ± 8.2*^#@ % | % number of osteoclast (vs. solvent control group) [1, 11]: 78 ± 8.6 %

O=P(O)(O)C(O)(Cc1cccnc1)P(=O)(O)O [risedronic acid, reference compound]
activity at 0.1 µM [2, 15]: 69% | % number of osteoclast (vs. solvent control group) [2, 15]: 69 ± 6.7 % | activity at 0.1 µM ([1]; Mus musculus, Osteoclast, 168 h, individual treatment of risedronic acid (0.1 μM), read-out: % number of osteoclast (vs. solvent control group)): ~82% | % number of osteoclast (vs. solvent control group) ([1]; individual treatment of risedronic acid (0.1 μM)): 82 ± 5.2 %

O=P(O)(O)C(Cl)(Cl)P(=O)(O)O [clodronic acid, reference compound]
activity at 1 µM ([1]; Mus musculus, Osteoclast, 168 h, individual treatment of clodronic acid (1 μM), read-out: % number of osteoclast (vs. solvent control group)): 88% | % number of osteoclast (vs. solvent control group) ([1]; individual treatment of clodronic acid (1 μM)): 88 ± 9.7 %

CCCCCN(C)CCC(O)(P(=O)(O)O)P(=O)(O)O [ibandronic acid, reference compound]
activity at 0.1 µM ([1]; Mus musculus, Osteoclast, 168 h, individual treatment of ibandronic acid (0.1 μM), read-out: % number of osteoclast (vs. solvent control group)): 77% | % number of osteoclast (vs. solvent control group) ([1]; individual treatment of ibandronic acid (0.1 μM)): 77 ± 8.2 %

CCCCc1sc(N(C)C)nc1-c1ccc(OCCCCCOc2ccc(C(=N)NO)cc2)cc1 [Compound 152, N-hydroxy-4-{5-[4-(5-butyl-2-dimethylamino-1,3-thiazol-4-yl)phenoxy]pentyloxy}-benzamidine]
% number of osteoclast (vs. solvent control group) [2, 12]: 46 ± 8.8^b % | % number of osteoclast (vs. solvent control group) [2, 13]: 48 ± 4.9^ac % | activity at 0.1 µM [2, 14]: 65 ± 2.2%

CCN(CCO)c1nc(-c2ccc(OCCCCCOc3ccc(C(=N)NO)cc3)cc2)c(C)s1 [Compound 121, N-hydroxy-4-[5-(4-{2-[ethyl-(2-hydroxyethyl) -amino]-5-methyl-1,3-thiazol-4-yl}phenoxy)pentyloxy]-benzamidine]
% number of osteoclast (vs. solvent control group) [2, 12]: 55 ± 11.1^ab % | % number of osteoclast (vs. solvent control group) [2, 13]: 39 ± 5.7^ac % | activity at 0.1 µM [2, 14]: 95 ± 3.9%

CC(C)c1nc(-c2ccc(OCCCCCOc3ccc(C(=N)NO)cc3)cc2)c(CCN2CCN(C)CC2)s1 [Compound 241, N-hydroxy-4-[5-(4-{2-isopropyl-5-[2-(4-methyl-piperazin-1-yl)-ethyl]-thiazol-4-yl}-phenoxy)-pentyloxy]-benzamidine]
% number of osteoclast (vs. solvent control group) [2, 12]: 24 ± 4.6^ab % | % number of osteoclast (vs. solvent control group) [2, 13]: 12 ± 1.4^ac % | activity at 0.1 µM [2, 14]: 61 ± 6.8%

CN(CCN1CCOCC1)c1nc(-c2ccc(OCCCCCOc3ccc(C(=N)NO)cc3)cc2)c(CC2CCCC2)s1 [Compound 148, N-hydroxy-4-[5-(4-{5-cyclopentylmethyl-2-[methyl-(2-morpholinoethyl)amino]-1,3-thiazol-4-yl}phenoxy)pentyloxy]-benzamidine]
% number of osteoclast (vs. solvent control group) [2, 12]: 33 ± 8.3^ab % | % number of osteoclast (vs. solvent control group) [2, 13]: 19 ± 2.4^a % | activity at 0.1 µM [2, 14]: 65 ± 4.3%

Cc1nc(-c2ccc(OCCCCCOc3ccc(C(=N)NO)cc3)cc2)c(CCn2ccnc2)s1 [Compound 222, N-hydroxy-4-(5-{4-[5-(2-imidazol-1-yl-ethyl)-2-methyl-thiazol-4-yl]-phenoxy}-pentyloxy)-benzamidine]
% number of osteoclast (vs. solvent control group) [2, 12]: 49 ± 6.8^ab % | % number of osteoclast (vs. solvent control group) [2, 13]: 36 ± 6.6^ac % | activity at 0.1 µM [2, 14]: 74 ± 7.1%

CN1CCN(CCc2sc(C3CCCCC3)nc2-c2ccc(OCCCCCOc3ccc(C(=N)NO)cc3)cc2)CC1 [Compound 247, N-hydroxy-4-[5-(4-{2-cyclohexyl-5-[2-(4-methyl-piperazin-1-yl)-ethyl]-thiazol-4-yl}-phenoxy)-pentyloxy]-benzamidine]
% number of osteoclast (vs. solvent control group) [2, 12]: 39 ± 3.7^ab % | % number of osteoclast (vs. solvent control group) [2, 13]: 17 ± 4.5^ac % | activity at 0.1 µM [2, 14]: 63 ± 4.2%

CC(C)c1nc(-c2ccc(OCCCCCOc3ccc(C(=N)NO)cc3)cc2)c(CCN2CCSCC2)s1 [Compound 245, N-hydroxy-4-(5-{4-[2-isopropyl-5-(2-thiomorpholin-4-yl-ethyl)-thiazol-4-yl]-phenoxy}-pentyloxy)-benzamidine]
% number of osteoclast (vs. solvent control group) [2, 12]: 23 ± 4.9^b % | % number of osteoclast (vs. solvent control group) [2, 13]: 16 ± 4.1^ac % | activity at 0.1 µM [2, 14]: 35 ± 5.7%

CCCCc1sc(N(CCC)CCC)nc1-c1ccc(OCCCCCOc2ccc(C(=N)NO)cc2)cc1 [Compound 146, N-hydroxy-4-{5-[4-(5-butyl-2-dipropylamino-1,3-thiazol-4-yl)phenoxy]pentyloxy}-benzamidine]
% number of osteoclast (vs. solvent control group) [2, 12]: 79 ± 7.8% | % number of osteoclast (vs. solvent control group) [2, 13]: 60 ± 13.6^c % | activity at 0.1 µM [2, 14]: 81 ± 8.9%

COCc1sc(C)nc1-c1ccc(OCCCCCOc2ccc(C(=N)NO)cc2)cc1 [Compound 76, N-hydroxy-4-{5-[4-(5-methoxymethyl-2-methyl-1,3-thiazol-4-yl)phenoxy]pentyloxy}-benzamidine]
% number of osteoclast (vs. solvent control group) [2, 12]: 31 ± 6.8^ab % | % number of osteoclast (vs. solvent control group) [2, 13]: 22 ± 3.8^a % | activity at 0.1 µM [2, 14]: 53 ± 6.5%

CNc1nc(-c2ccc(OCCCCCOc3ccc(C(=N)NO)cc3)cc2)c(CCCl)s1 [Compound 115, N-hydroxy-4-{5-[4-(5-(2-chloroethyl)-2-methylamino-1,3-thiazol-4-yl)phenoxy]pentyloxy}-benzamidine]
% number of osteoclast (vs. solvent control group) [2, 12]: 51 ± 8.9% | % number of osteoclast (vs. solvent control group) [2, 13]: 45 ± 8.3^ac % | activity at 0.1 µM [2, 14]: 77 ± 12.4%
